What all share (format): biochemical
For one experiment, the target named is T1, KDM2B (FBXL10) (Homo sapiens, UniProt Q8NHM5).
T1 construct: 1-650; purchased BPS Bioscience, US; host or cells: Bac (baculovirus/insect cells)
T1 sequence (Q8NHM5 1-650): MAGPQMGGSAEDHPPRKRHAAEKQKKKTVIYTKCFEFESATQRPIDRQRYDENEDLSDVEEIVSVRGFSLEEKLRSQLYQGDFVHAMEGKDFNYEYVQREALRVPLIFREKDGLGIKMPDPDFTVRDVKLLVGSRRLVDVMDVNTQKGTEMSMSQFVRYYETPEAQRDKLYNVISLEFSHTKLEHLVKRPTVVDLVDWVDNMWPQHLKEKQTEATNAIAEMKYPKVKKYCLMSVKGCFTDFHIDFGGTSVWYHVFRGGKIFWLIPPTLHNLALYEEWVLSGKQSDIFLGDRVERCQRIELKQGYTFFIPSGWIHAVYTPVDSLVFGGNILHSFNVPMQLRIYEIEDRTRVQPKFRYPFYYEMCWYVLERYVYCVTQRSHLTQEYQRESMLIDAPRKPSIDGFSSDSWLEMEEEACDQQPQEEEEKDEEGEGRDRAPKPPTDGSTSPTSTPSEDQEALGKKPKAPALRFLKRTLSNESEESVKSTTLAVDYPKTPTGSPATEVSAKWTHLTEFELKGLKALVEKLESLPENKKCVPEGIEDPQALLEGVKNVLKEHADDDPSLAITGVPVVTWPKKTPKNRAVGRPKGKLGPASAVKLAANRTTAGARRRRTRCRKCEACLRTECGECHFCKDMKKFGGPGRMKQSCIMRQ
Nature of the experiment: Histone lysine demethylase AlphaLISA assay, KDM2B. Conditions: in vitro enzyme, read-out: KDM2B IC50 (HDME Inhibition). The procedure:
(§1) Histone lysine demethylase AlphaLISA assays are performed to determine IC50 values. […] Assays are performed analogously to the protocol described by PerkinElmer (Roy et al. PerkinElmer Technical Note: AlphaLISA #12, April 2011).
(§2) Assays are performed analogously to the protocol described by PerkinElmer (Roy et al. PerkinElmer Technical Note: AlphaLISA #12, April 2011).
(§3) Enzymes (final assay concentration 0.1-2.5 nM) are dissolved in enzyme buffer and incubated for 10 min before 5 μL is added to 5 μL 3% DMSO solutions of compounds in enzyme buffer, incubated for another 10 minutes, before 5 μL substrate solution is added and the reaction mixture is incubated at room temperature. 10 μL acceptor beads, suspended Epigenetic Buffer (Perkin Elmer AL008) from stock, are added and the suspension is incubated in the dark at room temperature, before 10 μL suspension of streptavidin donor beads (Perkin Elmer 6760002) in Epigenetic Buffer is added. After incubation at room temperature in the dark the plates are read.
(§4) Substrate solution: Substrate (final assay concentration 50-200 nM), 50 mM Hepes (pH 7.4-8.0), 0.003% Tween-20, 0.1% BS, 25 μM L-Asc, 10 μM α-KG. Enzyme Buffer: 50 mM Hepes (pH 7.4-8.0), 0.003% Tween-20, 0.1% BSA; 5 μM (NH4)2Fe(SO4)2

In a further experiment the target is T2, KDM6A (UTX) (Homo sapiens, UniProt O15550).
T2 construct: 919-1401; host or cells: E. coli
T2 sequence (O15550 919-1401): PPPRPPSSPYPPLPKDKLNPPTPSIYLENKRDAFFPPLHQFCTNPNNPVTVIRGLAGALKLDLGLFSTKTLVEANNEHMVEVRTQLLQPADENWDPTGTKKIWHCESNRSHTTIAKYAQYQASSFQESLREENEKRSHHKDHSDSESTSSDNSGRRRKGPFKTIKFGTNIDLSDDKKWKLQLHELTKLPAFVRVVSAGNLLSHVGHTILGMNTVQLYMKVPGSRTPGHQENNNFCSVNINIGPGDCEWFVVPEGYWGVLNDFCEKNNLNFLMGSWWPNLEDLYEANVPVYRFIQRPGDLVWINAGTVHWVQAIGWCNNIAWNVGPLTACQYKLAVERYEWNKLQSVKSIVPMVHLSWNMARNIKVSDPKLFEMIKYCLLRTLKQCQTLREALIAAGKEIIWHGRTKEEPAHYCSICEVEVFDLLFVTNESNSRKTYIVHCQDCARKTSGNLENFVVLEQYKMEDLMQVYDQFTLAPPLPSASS
As to the kind of experiment: Histone lysine demethylase AlphaLISA assay, KDM6A. Conditions: in vitro enzyme, read-out: KDM6A IC50 (HDME Inhibition). As to the method: as §1, §2, §3, §4
A general note: In Alpha technology, singlet oxygen from a donor bead excites a nearby acceptor bead.

The target in the next experiment is T3, KDM5B (PLU-1) (Homo sapiens, UniProt Q9UGL1).
T3 construct: 1-809; host or cells: E. coli
T3 sequence (Q9UGL1 1-809): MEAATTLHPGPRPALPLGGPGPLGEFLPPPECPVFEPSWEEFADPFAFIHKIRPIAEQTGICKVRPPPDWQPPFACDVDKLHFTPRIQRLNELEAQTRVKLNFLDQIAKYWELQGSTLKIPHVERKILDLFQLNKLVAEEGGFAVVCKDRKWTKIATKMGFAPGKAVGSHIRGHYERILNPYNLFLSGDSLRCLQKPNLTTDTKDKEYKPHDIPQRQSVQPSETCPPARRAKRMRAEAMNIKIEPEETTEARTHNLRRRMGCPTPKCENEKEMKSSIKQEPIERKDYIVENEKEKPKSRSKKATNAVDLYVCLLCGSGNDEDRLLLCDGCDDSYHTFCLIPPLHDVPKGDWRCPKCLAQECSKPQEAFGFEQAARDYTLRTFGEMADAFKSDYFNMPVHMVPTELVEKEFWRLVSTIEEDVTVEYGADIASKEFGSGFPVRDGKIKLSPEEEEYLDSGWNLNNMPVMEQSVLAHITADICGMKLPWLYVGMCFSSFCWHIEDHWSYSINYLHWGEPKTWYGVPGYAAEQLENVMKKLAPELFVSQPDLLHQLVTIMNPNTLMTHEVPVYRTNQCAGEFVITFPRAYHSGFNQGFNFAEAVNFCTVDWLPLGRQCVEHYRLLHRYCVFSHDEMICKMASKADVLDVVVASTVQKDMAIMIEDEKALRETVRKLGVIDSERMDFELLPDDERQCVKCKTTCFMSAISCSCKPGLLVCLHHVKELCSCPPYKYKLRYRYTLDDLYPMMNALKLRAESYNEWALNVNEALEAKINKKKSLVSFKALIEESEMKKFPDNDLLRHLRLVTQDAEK
Nature of the experiment: Histone lysine demethylase AlphaLISA assay, KDM5B. Conditions: in vitro enzyme, read-out: KDM5B IC50 (HDME Inhibition). As to the method: as §1, §2, §3, §4

Another experiment has as its target PHF8 (KDM7) (Homo sapiens, UniProt Q9UPP1). Nature of the experiment: Histone lysine demethylase AlphaLISA assay, PHF8. Conditions: in vitro enzyme, read-out: PHF8 IC50 (HDME Inhibition). The procedure:
as §1, §2, §3, §4

PHF8 (KDM7), sequence (Q9UPP1 whole entry): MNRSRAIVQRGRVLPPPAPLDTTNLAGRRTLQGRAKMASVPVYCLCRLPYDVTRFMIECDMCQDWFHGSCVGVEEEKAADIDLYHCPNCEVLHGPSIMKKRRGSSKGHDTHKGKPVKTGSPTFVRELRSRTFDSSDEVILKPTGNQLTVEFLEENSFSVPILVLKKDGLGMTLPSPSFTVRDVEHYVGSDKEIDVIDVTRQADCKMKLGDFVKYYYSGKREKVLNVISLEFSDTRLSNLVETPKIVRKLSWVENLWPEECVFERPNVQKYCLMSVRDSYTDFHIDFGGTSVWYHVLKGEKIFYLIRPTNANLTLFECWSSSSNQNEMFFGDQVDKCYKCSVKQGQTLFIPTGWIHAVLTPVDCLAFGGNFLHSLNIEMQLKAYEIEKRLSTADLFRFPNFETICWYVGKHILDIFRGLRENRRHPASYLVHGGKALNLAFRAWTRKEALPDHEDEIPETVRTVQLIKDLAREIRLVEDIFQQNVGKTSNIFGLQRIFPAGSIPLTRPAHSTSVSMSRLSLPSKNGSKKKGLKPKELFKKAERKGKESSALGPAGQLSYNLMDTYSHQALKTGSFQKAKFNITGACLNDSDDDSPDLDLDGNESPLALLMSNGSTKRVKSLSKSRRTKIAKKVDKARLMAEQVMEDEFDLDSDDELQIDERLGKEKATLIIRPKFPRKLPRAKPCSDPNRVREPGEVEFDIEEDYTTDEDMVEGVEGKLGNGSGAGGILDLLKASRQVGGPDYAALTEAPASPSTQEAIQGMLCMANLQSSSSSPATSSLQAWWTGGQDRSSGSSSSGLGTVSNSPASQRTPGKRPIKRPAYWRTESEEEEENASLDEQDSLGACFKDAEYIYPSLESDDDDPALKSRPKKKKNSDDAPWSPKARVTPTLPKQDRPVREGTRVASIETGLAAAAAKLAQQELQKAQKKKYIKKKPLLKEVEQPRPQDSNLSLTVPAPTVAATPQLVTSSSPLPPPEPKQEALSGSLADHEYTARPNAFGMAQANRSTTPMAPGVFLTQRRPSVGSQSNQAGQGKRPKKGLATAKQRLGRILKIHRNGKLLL

Take `O=C(O)c1ccnc(CN2CCn3ccnc3C2)c1` [Compound 52, 2-{5H,6H,7H,8H-imidazo[1,2-a]pyrazin-7-ylmethyl}pyridine-4-carboxylic acid]: the results for the IC50 on KDM2B (FBXL10), at KDM6A (UTX) and on KDM5B (PLU-1) were over 2500 nM, over 2500 nM and 250 to 2500 nM, respectively.
Regarding `CCc1ccnc2c1CCC2NCc1cc(C(=O)O)ccn1` (stereo not shown) [Compound 97, 2-[({4-ethyl-5H,6H,7H-cyclopenta[b]pyridin-7-yl}amino)methyl]pyri-dine-4-carboxylic acid], the half-inhibitory concentration (IC50) at KDM2B (FBXL10), on PHF8 (KDM7) and on KDM5B (PLU-1) was under 250 nM throughout.
For the molecule `O=C(O)c1ccnc(CNCc2ccc3ncccc3c2)c1` [Compound 87, 2-{[(quinolin-6-ylmethyl)amino]methyl}pyridine-4-carboxylic acid], the values for the half-inhibitory concentration (IC50) on KDM2B (FBXL10), on PHF8 (KDM7) and at KDM5B (PLU-1) were 250 to 2500 nM, under 250 nM and under 250 nM, respectively.
As for `CC(C)C[C@H](NCc1cc(C(=O)O)ccn1)C(=O)NCc1ccccc1NC(=O)C1CC1C` (stereo partly drawn) [Compound 7, 2-({[(1S)-3-methyl-1-({[2-(2-methylcyclopropane-amido)phenyl]methyl}carbamoyl)butyl]amino}methyl)pyridine-4-carboxylic acid], the figures for the half-maximal inhibitory concentration (IC50) at KDM2B (FBXL10), at PHF8 (KDM7) and on KDM6A (UTX) were 250 to 2500 nM, 250 to 2500 nM and over 2500 nM, respectively.
Turning to `CC(C)C[C@H](NCc1cc(C(=O)O)ccn1)C1CCCO1` (stereo partly drawn) [Compound 60, 2-({[(1S)-3-methyl-1-(oxolan-2-yl)butyl]amino}methyl) pyridine-4-carboxylic acid], the figures for the IC50 on KDM2B (FBXL10), at KDM6A (UTX) and at KDM5B (PLU-1) were over 2500 nM, over 2500 nM and under 250 nM, respectively.
For `C=CCN(CC=C)C(=O)[C@@H](CCC(N)=O)NCc1cc(C(=O)O)ccn1` [Compound 25, 2-({[(1R)-1-[bis(prop-2-en-1-yl)carbamoyl]-3-carbamoylpropyl]amino}methyl)pyridine-4-carboxylic acid], the concentration for half-maximal inhibition (IC50) at KDM2B (FBXL10), at PHF8 (KDM7) and at KDM5B (PLU-1) was 250 to 2500 nM throughout.
Regarding `O=C(O)c1ccnc(CNCc2cncc3ccccc23)c1` [Compound 85, 2-{[(isoquinolin-4-ylmethyl)amino]methyl}pyridine-4-carboxylic acid], the concentration for half-maximal inhibition (IC50) – broadly, the concentration that inhibits the measured activity by half – on KDM2B (FBXL10) was under 250 nM; on KDM6A (UTX), over 2500 nM.
For `CCCC(NCC(=O)N1CCCCC1)c1cc(C(=O)O)ccn1` (stereo not shown) [Compound 45, 2-(1-{[2-oxo-2-(piperidin-1-yl)ethyl]amino}butyl) pyridine-4-carboxylic acid], the IC50 on KDM2B (FBXL10) and on PHF8 (KDM7) was 250 to 2500 nM in each case.
In the case of `O=C(O)c1ccnc(CNC2CCc3c(CCc4ccccc4)ccnc32)c1` (stereo not shown) [Compound 96, 2-({[4-(2-phenylethyl)-5H,6H,7H-cyclopenta[b]pyridin-7-yl]amino}methyl)pyri-dine-4-carboxylic acid], the IC50 at KDM2B (FBXL10) and on PHF8 (KDM7) was under 250 nM throughout.
For `C=CCN(CC=C)C(=O)[C@H](CCCCNC(=O)OC(C)(C)C)NCc1cc(C(=O)O)ccn1` [Compound 40, 2-({[(1S)-1-[bis(prop-2-en-1-yl)carbamoyl]-5-{[(tert-butoxy)carbonyl]amino}pentyl]amino}methyl) pyridine-4-carboxylic acid], the half-maximal inhibitory concentration (IC50) on KDM2B (FBXL10) and on KDM5B (PLU-1) was 250 to 2500 nM throughout.
As to `O=C(O)c1ccnc(CN2CCCCC2CO)c1` (stereo not shown) [Compound 66, 2-{[2-(hydroxymethyl)piperidin-1-yl]methyl} pyridine-4-carboxylic acid], the results for the IC50 at KDM2B (FBXL10), on PHF8 (KDM7) and on KDM5B (PLU-1) were 250 to 2500 nM, over 2500 nM and over 2500 nM, respectively.
Turning to `O=C(O)c1ccnc(CNCC(=O)N2CCCCC2)n1` [Compound 23, 2-({[2-oxo-2-(piperidin-1-yl)ethyl]amino}methyl) pyrimidine-4-carboxylic acid], the concentration for half-maximal inhibition (IC50) at KDM2B (FBXL10) is 250 to 2500 nM; on KDM5B (PLU-1), over 2500 nM.
Take `CCN1CCC[C@H](CNCc2cc(C(=O)O)ccn2)C1=O` [Compound 107, 2-[({[(3R)-1-ethyl-2-oxopiperidin-3-yl]methyl}amino)methyl]pyridine-4-carboxylic acid]: the IC50 on KDM2B (FBXL10) was under 250 nM; on KDM6A (UTX) it was over 2500 nM; at KDM5B (PLU-1) it was under 250 nM.
Consider `C=CCN(CC=C)C(=O)[C@@H](CC(=O)NCCCC)NCc1cc(C(=O)O)ccn1` [Compound 24, 2-({[(1R)-1-[bis(prop-2-en-1-yl)carbamoyl]-2-(butylcarbamoyl)ethyl]amino}methyl)pyridine-4-carboxylic acid], for which the IC50 on KDM2B (FBXL10) was 250 to 2500 nM; at KDM6A (UTX) it was over 2500 nM; at KDM5B (PLU-1), over 2500 nM.
For `CCN(CC)C(=O)CCN(CCO)Cc1cc(C(=O)O)ccn1` [Compound 44, 2-({[2-(diethylcarbamoyl)ethyl](2-hydroxyethyl)amino}methyl)pyridine-4-carboxylic acid], the concentration for half-maximal inhibition (IC50) at KDM2B (FBXL10) is 250 to 2500 nM; at KDM5B (PLU-1) it was under 250 nM.
As to `C=CCN(CC=C)C(=O)[C@@H](CC(=O)NCC1CC1)NCc1cc(C(=O)O)ccn1` [Compound 18, 2-({[(1R)-1-[bis(prop-2-en-1-yl)carbamoyl]-2-[(cyclopropylmethyl)carbamoyl]ethyl]amino}methyl)pyridine-4-carboxylic acid], the values for the IC50 on KDM2B (FBXL10), at KDM6A (UTX) and on KDM5B (PLU-1) were 250 to 2500 nM, over 2500 nM and 250 to 2500 nM, respectively.
Consider `C=CCN(CC=C)C(=O)[C@H](CC(=O)NCC1(CO)CC1)NCc1cc(C(=O)O)ccn1` [Compound 11, 2-({[(1S)-1-[bis(prop-2-en-1-yl)carbamoyl]-2-({[1-(hydroxymethyl)cyclo-propyl]methyl}carba-moyl)ethyl]amino}methyl)pyridine-4-carboxylic acid], for which the IC50 on KDM2B (FBXL10) and at KDM5B (PLU-1) was 250 to 2500 nM each time.
For `CC1(C)Cc2cccnc2C1NCc1cc(C(=O)O)ccn1` (stereo not shown) [Compound 102, 2-[({6,6-dimethyl-5H,6H,7H-cyclopenta[b]pyridin-7-yl}amino)methyl]pyri-dine-4-carboxylic acid], the IC50 at KDM2B (FBXL10), on PHF8 (KDM7) and at KDM5B (PLU-1) was 250 to 2500 nM throughout.
`CC(C)C[C@@H]1[C@@H](O)CC(C)N1Cc1cc(C(=O)O)ccn1` (stereo partly drawn) [Compound 59, 2-{[(2R,3S)-3-hydroxy-5-methyl-2-(2-methylpropyl)pyrrolidin-1-yl]methyl}pyridine-4-carboxylic acid]: the IC50 at KDM2B (FBXL10), on PHF8 (KDM7) and on KDM5B (PLU-1) was 250 to 2500 nM each time.
As for `COc1ccc(CCCN(CC(=O)N2CCCCC2)Cc2cc(C(=O)O)ccn2)cc1` [Compound 46, 2-({[3-(4-methoxyphenyl)propyl] [2-oxo-2-(piperidin-1-yl)ethyl]amino}methyl) pyridine-4-carboxylic acid], the IC50 at KDM2B (FBXL10) and on PHF8 (KDM7) was 250 to 2500 nM each time.

These data come from patent US20170369444A1, “INHIBITORS OF HISTONE DEMETHYLASES” (Gilead Sciences, Inc., priority 2014, published 2017).
